# Source: patent US20240335465A1 (University of Virginia Patent Foundation, priority 2021, published 2024)
# Legend:
# DDR signaling [1] = assay: DDR signaling immunoblot in HEK293 cells; type: cell-based, human; details: HEK293, 4 hours post transfection
# PARylation = assay: PolyADP-ribosylation (PARylation) immunoblot; type: cell-based, human
# Excerpt: Cells were collected by centrifugation, washed once with ice-cold PBS, lysed in RIPA buffer and analyzed by western blot to detect PARylation using pADPr Antibody (Santa Cruz sc-56198).
# γH2AX = γH2AX immunofluorescence (human RPE, THP1 cells); type: cell-based
# Description: Immunofluorescence Staining: 16,500 adherent cells/cm^2 were plated on a gelatin coated 8-chamber slide (VWR, Catalogue #62407-296) and treated as indicated. Media was removed and cells were washed with 1×PBS with Ca^2+/Mg^2+ and fixed with 4% PFA for 20 minutes. Fixed cells were permeabilized with PBS+0.1% Triton-X and washed 3 times with PBS+0.1% Tween20. After treatment as indicated, non-adherent THP1 cells were collected by centrifugation, washed in cold PBS and fixed in PFA. Post-fixation, they were washed with PBS, spotted on gelatin coated “PTFE” Printed Slides (Electron Microscopy Sciences, Cat #63424-06), and air-dried. For γH2AX staining, permeabilized cells were blocked in Serum-free DAKO Protein Block (Agilent, Catalogue #X0909) for 1 hr at room temperature. Cells were incubated in primary antibody (γH2AX, 1:500; anti-HA, 1:100; Table 1) in DAKO antibody diluent at 4° C. overnight on a rocker platform. U2OS-STING cells undergoing Rad51 staining were first fixed in methanol for 20 minutes in −20° C., blocked for 1 hr with donkey block (2% normal donkey serum, 1% BSA, 0.1% Triton X 100, 0.05% Tween20, 0.05% Sodium Azide in PBS), then finally incubated in an anti-Rad51 antibody overnight at 4° C. (Bio-academia Cat #70-001, 1:6000 in 5% milk in TBST). For RPA70 staining, cells were fixed in 4% PFA at room temperature for 20 minutes and blocked in Cell Signaling blocking buffer (1×PBS/5% normal donkey serum/0.3% Triton™ X-100) for 1 hr in room temperature then incubated in an RPA70 antibody (Cell Signaling Cat #2267, 1:50 in blocking buffer) overnight at 4° C. Primary antibody was washed 3 times and incubated with secondary antibodies (Invitrogen, Alexa 555, 488) for 1 hr at room temperature. Coverslips were mounted on the cells with ProLong™ Gold Antifade mounting media with DAPI (Thermofisher, Catalogue #P36935). All images were obtained by confocal microscopy (Nikon, C2).
# DDR signaling [2] = assay: DDR signaling immunoblot in STING-reconstituted U2OS cells; type: cell-based, human; details: cGAMP 18 hours
# Description: Generation of U2OS-STING cells: WT U2OS cells were reconstituted with STING by integrating LentiORF-TMEM173 (CCSB-Broad Lentiviral Expression Collection, TMEM173, Cat #ccsbBroad304_05465) via lentiviral transduction of U2OS cells as described above. Exposure to blasticidin (10 μg/ml) for 14 days facilitated the selection of STING integrated cells whose protein over-expression profiles were assessed by immunoblotting.
# THP1 cells = assay: Quantitative RT-PCR gene expression in THP1 cells; type: cell-based, human
# Excerpt: Quantitative RT-PCR analysis: Cells collected at indicated time points were washed with ice cold PBS and lysed in lml Trizol (Invitrogen). Total RNA extracted according to the manufacturer's recommendations was DNase treated and reverse transcribed to make cDNA with a QuantiTect Reverse Transcription kit (QIAGEN). The cDNAs synthesized were amplified by real-time quantitative PCR (Applied Biosystems 7900 HT Fast Real-Time PCR system) with Power SYBR green Master Mix. Relative gene expression was determined by the 2-ΔΔCt method, and 18S rRNA or GAPDH was used as an internal control. Primer details in Table 2.
# NAD^+ = assay: NAD+ quantification; type: cell-based, human; details: WT and STING−/− THP1, cGAMP
# DDR signaling [3] = assay: DDR signaling immunoblotting in THP1 cells
# [4] = tested on: hRPE and U2OS-STING cells; assay: EdU incorporation assay; type: cell-based, human; details: 18 hours
# Excerpt: (§1) EdU incorporated cells were detected by confocal microscopy after Click-iT® EdU labeling following the manufacturer's protocol (Click-iT™ EdU Alexa Fluor™ 594 Imaging Kit, Thermo Fisher Cat #C10339).
# [5] = tested on: HEK293-ACE reporter cells; assay: ACE CRISPR/Cas9 reporter system; type: cell-based, human; details: cGAMP transfection; interferon β 50 ng/ml
# Description: ACE CRISPR/Cas9 reporter system: The ACE reporter (Addgene #109428) described previously (Aird et al., 2018; St. Martin et al., 2018) was integrated in HEK293 cells using lentiviral transduction. ACE reporter integrated cells (GFP+) were sorted in a Becton Dickinson Influx Cell Sorter and propagated. […] 72 hours post RNP transfection, cells were trypsinized, collected, and analyzed with an Attune NxT flow cytometer (Thermofisher). To quantify the HDR DNA repair events, ˜10,000-30,000 cells were acquired on an Attune NxT cytometer and analyzed using FCS Express software. Single cell events were determined by gating on the area against the width of the forward scatter pulse signal. Debris removal was performed by excluding events with very low forward and side scatter. For determining % of mCherry positive cells we established positive and negative populations using mock transfections as negative controls and mCherry transfected samples as Fluorescence Minus One controls.
# U2OS-STING cells = assay: RAD51 and RPA70 foci in EdU+ U2OS-STING cells; type: cell-based, human; details: EdU-positive S-phase cells, Camptothecin 5 μM 16 hours
# Description: Immunofluorescence Staining: 16,500 adherent cells/cm^2 were plated on a gelatin coated 8-chamber slide (VWR, Catalogue #62407-296) and treated as indicated. Media was removed and cells were washed with 1×PBS with Ca^2+/Mg^2+ and fixed with 4% PFA for 20 minutes. Fixed cells were permeabilized with PBS+0.1% Triton-X and washed 3 times with PBS+0.1% Tween20. After treatment as indicated, non-adherent THP1 cells were collected by centrifugation, washed in cold PBS and fixed in PFA. Post-fixation, they were washed with PBS, spotted on gelatin coated “PTFE” Printed Slides (Electron Microscopy Sciences, Cat #63424-06), and air-dried. For γH2AX staining, permeabilized cells were blocked in Serum-free DAKO Protein Block (Agilent, Catalogue #X0909) for 1 hr at room temperature. Cells were incubated in primary antibody (γH2AX, 1:500; anti-HA, 1:100; Table 1) in DAKO antibody diluent at 4° C. overnight on a rocker platform. […]
# as §1
# cell cycle progression = assay: Cell cycle analysis by flow cytometry (BrdU, propidium iodide); type: cell-based, human
# Description: Cells were washed with cold PBS and resuspended in 0.5 ml PBS to achieve a single cell suspension. Cells were fixed in a tube containing 4.5 ml 70% ethanol kept at 4° C. overnight. Cells were collected by centrifugation at 500 g for 5 minutes and washed twice with PBS. Washed cells were then stained with 1 ml of freshly prepared staining solution containing propidium iodide (10 μg/ml), DNase-free RNaseA (100 μg/ml), and 0.1% (v/v) Triton X-100 before being subjected to flow cytometry measurement. To determine percentage of cell population in various cell cycle stage, ˜10,000-30,000 cells were acquired on an Attune NxT cytometer and analyzed using FCS Express software. Cell cycle analysis was performed on propidium iodide stained cells and single cell events were determined by gating on the area against the width of the propidium iodide pulse signal. DNA cell cycle modeling and fit was performed using the Multicycle AV plugin (Phoenix Flow Systems).
# Cells were fixed and stained to detect BrdU incorporation by flow cytometry following the manufacturer's protocol (FITC BrdU Flow Kit, BD Biosciences, Cat #559619).
structure (smiles),measurement,setting,value
"Nc1nc2c(ncn2[C@@H]2O[C@@H]3COP(=O)(O)O[C@H]4[C@@H](O)[C@H](n5cnc6c(N)ncnc65)O[C@@H]4COP(=O)(O)O[C@@H]2[C@@H]3O)c(=O)[nH]1 [cGAMP, cyclic guanosine monophosphate-adenosine monophosphate]","phosphorylation status of H2AX, STING, and STAT2",DDR signaling [1],respond normally to cGAMP stimulation
same,cGAMP-induced suppression of protein PARylation in ATM-inhibited cells,PARylation; 25 μM KU-55933,proceeded normally in ATM-inhibited cells
same,total cellular level of protein PARylation,"PARylation; WT THP1, H2O2 or doxorubicin",substantially reduced total cellular level of protein PARylation
same,PARP1 PARylation,"PARylation; WT THP1, cGAMP 6 hours, H2O2 10 minutes, anti-PARP1 IP",notably reduced
same,STING requirement for cGAMP-induced suppression of protein PARylation,"PARylation; WT and STING−/− THP1, 250 μM H2O2 10 minutes",STING was required
same,cGAMP-induced pan-nuclear γH2AX staining,"γH2AX; WT, STING−/−, shIFNAR THP1 cells, 16 hours",suppressed in STING^−/− but not in sh-IFNAR THP1 cells
same,γH2AX staining pattern,"γH2AX; human RPE cells, doxorubicin 2 hours, cGAMP or HT-DNA 6 hours",γH2AX marked by pan-nuclear staining
same,"DDR signaling (γH2AX, pCHK2)",DDR signaling [2],exhibiting biochemical evidence of DDR signaling
same,dependence of DDR gene induction on STING and TBK1,"THP1 cells; STING−/− THP1, 10 μM MRT67307 2 hours then cGAMP 6 hours",dependent on STING and TBK1
same,induction of IFN genes (IFN-β and ISGs),"THP1 cells; THP1, exogenous cGAMP 1 μg vs transfected HT-DNA 2 μg","comparable to that of cytosolic DNA-induced, endogenously produced cGAMP"
same,CDKN1A/p21 transcript,"THP1 cells; WT THP1, 6 hours",strong induction of CDKN1A/p21
same,transcript abundance of E2F target genes,"THP1 cells; WT THP1, 6 hours",decreased transcript abundance of E2F target genes
same,abundance of cellular NAD^+,NAD^+,significantly reduced the abundance of cellular NAD^+ in a STING-dependent manner
same,cGAMP-mediated induction of γH2AX and pCHK2,DDR signaling [3]; IFNAR1 and STAT2 knockdown THP1 cells,failed to impede cGAMP-mediated induction of γH2AX and pCHK2
same,"activation of DDR by cGAMP (H2AX, ATM, CHK2 phosphorylation)","DDR signaling [3]; STING−/− THP1 cells, 16 hours",abrogated by the deletion of STING
same,"DDR activation (γH2AX, pCHK2)","DDR signaling [3]; THP1, LPS 500 ng/ml 6 hours, cGAMP 16 hours",activated the DDR
same,ATR phosphorylation (pATR),DDR signaling [3]; WT THP1,inducing ATR phosphorylation
same,CHK1 activation (pCHK1),DDR signaling [3]; WT THP1,neither activation of CHK1
same,cGAMP-induced DDR signaling,"DDR signaling [3]; cGAS−/− THP1 cells, 16 hours",proceeded normally in cGAS-deficient cells
same,γH2AX in target THP1 cells incubated with conditioned media from cGAMP treated cells,"DDR signaling [3]; conditioned media collected after 18 hours, 18 hours on target cells",failed to induce γH2AX
same,cGAMP-induced DDR signaling,DDR signaling [3]; shTBK1 knockdown THP1 cells,substantially reduced cGAMP-induced DDR signaling
same,EdU-positive cells,[4],diminished count of hRPE and STING-U2OS EdU-positive cells
same,HDR-mediated CRISPR editing (mCherry positive cells),[5],significantly dampened HDR-mediated CRISPR editing
same,DNA damage-induced RAD51 and RPA foci formation,U2OS-STING cells,suppressed DNA damage-induced RAD51 and RPA foci formation in EdU-positive S-phase cells
same,"dependence of cGAMP-induced G1 cell cycle arrest on STING, TBK1, IFNAR1, STAT2","cell cycle progression; STING−/−, shTBK1, shIFNAR1, shSTAT2 THP1","reliant on the former two signaling proteins (i.e. STING and TBK1), but occurs independently of IFNAR and STAT2"
same,G1 arrest in unperturbed and PARP-inhibited cells,"cell cycle progression; WT THP1, 10 μM Rucaparib or vehicle, 24 hours",promotes G1 arrest in both unperturbed as well as PARP-inhibited cells
same,number of cells in the S-phase,"cell cycle progression; WT THP1, BrdU, 24 hours",decreased the number of cells in the S-phase
same,proportion of cells in the G1 phase,"cell cycle progression; WT THP1, BrdU, 24 hours",substantially increased the proportion of cells arrested in the G1 phase
same,cGAMP-induced G1 arrest after p53 knockdown,"cell cycle progression; shP53 U2OS-STING cells, 24 hours",abrogated the cGAMP-induced G1 arrest
